# Source: US7217559B2, “Gene encoding cyclododecanone monooxygenase” (National Research Council of Canada, priority 2002, dated 2007)
# B1: CDMO: cyclododecanone monooxygenase of Pseudomonas putida HI-70, encoded by cdnB, amino acid sequence SEQ ID NO:8 (protein)
# chain: MSQLIQEPAEAGVTSQKVSFDHVALREKYRQERDKRLRQDGQEQYLEVAVTCDEYLKDPYADPIVRDPVVRETDVFIIGGGFGGLLAAVRLQQAGVSDYVMVERAGDYGGTWYWNRYPGAQCDIESYVYMPLLEEMGYIPTEKYAFGTEILEYSRSIGRKFGLYERTYFQTEVKDLSWDDEAARWRITTDRGDKFSARFVCMSTGPLQRPKLPGIPGITSFKGHSFHTSRWDYSYTGGDQTGNLEGLKDKRVAIIGTGATSIQAVPHLAAYAQELYVIQRTPISVGFRGNKPTDPEWAKSLQPGWQQARMDNFNAITHGMPVDVDLVQDSWTKIFGEIGVFLGSDGSRAQMVDFQLMEQIRARVDQEVKDPATAESLKPYYNIMCKRPGFHDSYLPSFNKPNVTLVDTQGAGVERITEKGLVVNGREYEVDCLIYATGFEYQTKLSRRNGYEIHGRNGQPLSDKWKDGLSTLWGYHIRDFPNCFILGNGQSAVTPNFTHMLNEAGKHVAYVVKHCLDERVDVFEPTAEAEQAWVDHVMSFAGIKQQYDRECTPSYYNNEGQVNDVALTRTTSTRAVRSLINILREWREKGDFAQFQQRKR
# modifications: Primer
# How the values were obtained:
# [1] = system: cyclododecanone monooxygenase (CDMO); test: Substrate specificity of cloned CDMO (relative activity towards cyclic ketones); assay type: biochemical, Pseudomonas putida strain HI-70; conditions: ketone as substrate, cyclododecanone = 100%
# [2] = system: cyclododecanone monooxygenase (CDMO); test: Comparison of CDMO activity in E. coli and native HI-70; assay type: biochemical, Pseudomonas putida strain HI-70
Molecule,relative activity [1] [%],CDMO activity ([2]; from E. coli DH5α(pSD-cdnB)),CDMO activity ([2]; original P. putida strain HI-70)
O=C1CCCCCCCCC1 [cyclodecanone],10,–,–
O=C1CCCCCCCCCCC1 [cyclododecanone],100,–,–
O=C1CCCCCCCCCCCCCC1 [cyclopentadecanone],144,–,–
O=C1CCCCCCCCCCCC1 [cyclotridecanone],138,–,–
O=C1CCCCCCCCCC1 [cycloundecanone],56,–,–
B1,–,0.48 U/mg of protein,0.14 U/mg of protein
